# Measured values taken from patent publication US20060276465A1, “1,2-di(cyclic) substituted benzene compounds” (Eisai R&D Management Co., Ltd., priority 2003, published 2006).
# Counter-ions that a name gives are not always drawn.
# Columns and labels:
# [1] = system: human peripheral blood neutrophils; experiment: Human peripheral blood neutrophil adhesion system (adhesion to immobilized HUVEC, PMA-stimulated); assay type: cell-based; settings: 0.75 h, concentration inhibiting by 50% the PMA-stimulated increase in the number of adhered BCECF-AM labeled neutrophils on HUVEC immobilized plate, 45 minutes, 37° C.
# Procedure: Evaluation of Compounds in Human Peripheral Blood Neutrophil Adhesion System
# <Preparation of Human Peripheral Blood Neutrophils>
# To a plastic centrifugation tube containing 100 units of heparin sodium (Shimizu Pharmaceutical) was added 25 ml of fresh blood sampled from a healthy human. After adding and mixing therewith 8 ml of physiological saline (Otsuka Pharmaceutical) containing 6% Dextran (Nacalai), the mixture was allowed to stand at room temperature for 45 minutes for sedimentation of the erythrocytes. The resultant supernatant was transferred to another plastic centrifugation tube and combined with an equivalent volume of phosphate-buffered saline (hereinafter abbreviated as PBS; Sigma), and then centrifuged at 1600 rpm for 7 minutes at room temperature. The obtained hematocyte fraction was suspended in 4 ml of PBS, and the suspension was superposed on 4 ml of Ficoll-Paque™ PLUS (Amersham Biosciences). The resultant bilayer liquid was centrifuged at 2000 rpm for 30 minutes at room temperature, after which the supernatant was removed and the precipitate was suspended in 10 ml of PBS and centrifuged at 1200 rpm for 7 minutes, and the supernatant was removed. The resulting precipitate was suspended in 0.5 ml of PBS again, and then 10 ml of distilled water (Otsuka Pharmaceutical) was added, 0.5 ml of an aqueous solution containing 3 M NaCl was immediately added to restore isotonicity, the mixture was centrifuged at 1200 rpm for 7 minutes, and the obtained precipitate was suspended in PBS containing 1 mg/ml bovine serum albumin (hereinafter abbreviated as BSA; Sigma) again and stored in ice until being used for the experiment.
# <Fluorescent Labeling of Human Peripheral Blood Neutrophils>
# The obtained neutrophils were suspended in PBS containing 1 mg/ml BSA at 2×10^7 cells/ml. BCECF-AM (Dojin) was added to a final concentration of 5 μM, and the mixture was incubated at 37° C. for 45 minutes. It was then rinsed twice with PBS containing 1 mg/ml BSA by centrifugation, suspended again in PBS containing 1 mg/ml BSA at 5×10^7 cells/ml, and stored in ice until use.
# <Preparation of HUVEC Immobilized Plate>
# Human umbilical vein endothelial cells (hereinafter abbreviated as HUVEC) were suspended in MCDB131 medium (Chlorella Industries) containing 10% fetal calf serum and 30 μg/ml endothelial cell growth supplement (Becton Dickinson Bioscience). The suspension was added at 7.5×10^3 cells/well to a 96-well plate (Iwaki) immobilized with type I collagen, and cultured for 3 days in a CO2 incubator (Hirasawa). Upon confirming confluency of the cells, the supernatant was discarded, the plate was rinsed twice with PBS, and then PBS containing 0.1% glutaraldehyde (Kanto Kagaku) was added at 100 μl/well and the HUVECs were immobilized for 5 minutes. The supernatant was discarded and the plate was washed twice with PBS, and then PBS was added at 100 μl/well and the mixture was stored at 4° C. until use.
# To 6.5 ml of RPMI-1640 medium (Sigma) containing 1 mg/ml of BSA were added 0.5 ml of a suspension of BCECF-AM labeled neutrophils at 5×10^7/ml stored in ice, which was mixed, and the mixture was added at 80 μl/well to a HUVEC immobilized plate. To this plate were immediately added 10 μl/well of a solution of the compound diluted at different concentrations with RPMI-1640 containing 1 mg/ml BSA, and 10 μl/well of 100 nM phorbol myristate acetate (hereinafter abbreviated as PMA; Sigma) in RPMI-1640 containing 1 mg/ml BSA, and the mixture was incubated in a CO2 incubator at 37° C. for 45 minutes. The supernatant was removed from the plate, which was then washed several times with RPMI-1640 at 100 μl/well, and then PBS containing 0.1% NP-40 (Calbiochem) was added thereto at 100 μl/well and the fluorescent intensity was measured with and ARVO™SX 1420 multi label counter (Wallac) to determine the number of adhered cells. […]
# Jurkat cells = experiment: Jurkat cell adhesion system (adhesion to immobilized human fibronectin, PMA-stimulated); assay type: cell-based; settings: concentration inhibiting by 50% the PMA-stimulated increase in the number of adhered Jurkat cells on human fibronectin, 45-60 minutes, 37° C.
# Procedure: Evaluation of Compounds in Jurkat Cell Adhesion System
# <Immobilization of Human Fibronectin in 96-Well Plate>
# Human fibronectin (Becton Dickinson Biosciences) was diluted with phosphate-buffered saline (hereinafter abbreviated as PBS; Sigma) to 0.1-0.01 μg/ml, and the diluted solution was added to a 96-well plate (Becton Dickinson) at 50 μl/well, and allowed to stand overnight at 4° C. On the following day, the supernatant was removed from the plate, and then PBS containing 1% bovine serum albumin (hereinafter abbreviated as BSA; Sigma) was added thereto at 100 μl/well and incubation was performed at 37° C. for 2 hours in a CO2 incubator (Hirasawa).
# The supernatant was removed from each plate and Jurkat cells suspended in RPMI-1640 (Sigma) containing 1 mg/ml BSA were added at 80 μl/well for 2.5×10^5 cells/well. The compound diluted to different concentrations with RPMI-1640 containing 1 mg/ml BSA was immediately added at 10 μl/well, and then 100 nM phorbol myristate acetate (hereinafter abbreviated as PMA; Sigma) in RPMI-1640 containing 1 mg/ml BSA was added at 10 μl/well and the plate was incubated in a CO2 incubator at 37° C. for 45-60 minutes. The supernatant was removed from the plate and each well was washed several times with 100 μl/well of RPMI-1640, after which 50 mM citrate buffer (pH 5.0) containing 3.75 mM p-nitrophenol-N-acetyl-β-D-glucosaminide (Sigma) and 0.25% Triton X-100 (Sigma) were added at 60 μl/well, and the mixture was placed in a CO2 incubator and incubated at 37° C. for 45 minutes. After incubation, 50 mM glycine buffer (pH 10.4) containing 5 mM EDTA was added at 90 μl/well, and the absorbance at 405 nm was measured with an EL340 Automated Microplate Reader (BIO-TEK) to determine the adhered cell count. The concentration of each compound which inhibited the increase in the number of adhered cells by the PMA-stimulation by 50% was recorded as the IC50 (μM).
# Balb/c mice = experiment: DSS-induced colitis model; assay type: in vivo; settings: male Balb/c mice; 1-3% DSS for 5-7 days; 30 mg/kg orally once a day for 5-7 successive days
# Excerpt: Evaluation of Compounds in DSS-Induced Colitis Model
# A 1-3% solution of dextran sulfate sodium (hereinafter abbreviated as DSS; ICN) in purified water (Otsuka Pharmaceutical) was fed freely to 6- to 7-week-old male Balb/c mice (Charles River Japan) for 5-7 days to induce colitis. Disease Activity Index (hereinafter abbreviated as DAI) scored based on fecal hardness, blood content in feces and body weight change, the number of neutrophils infiltrating the colon and the length of the colon were used as indexes to evaluate compounds. Each compound was suspended or dissolved in an aqueous solution containing 0.5% methyl cellulose (Wako), and orally administered at 30 mg/kg once a day, for 5-7 successive days.
SMILES,IC50 [1],IC50 (Jurkat cells),"improvement in comparison with the DSS control group (DAI, number of neutrophils infiltrating the colon, length of the colon) (Balb/c mice)",IC50 ([1]; HUVEC),"IC50 (Jurkat cells; Homo sapiens, Jurkat)"
"CCCN1CCN(c2ccccc2C2CC(C)(C)CC(C)(C)C2)CC1.Cl [Example 31, 1-Propyl-4-[2-(3,3,5,5-tetramethylcyclohexyl)phenyl]piperazine hydrochloride]",9.5 µM,4.5 µM,particularly good improvement,,
"CC1(C)CC(c2ccccc2N2CCN(CC3CC3)CC2)CC(C)(C)C1 [Example 117, 1-Cyclopropylmethyl-4-[2-(3,3,5,5-tetramethylcyclohexyl)phenyl]piperazine methanesulfonate]",7.1 µM,4.7 µM,,,
"CCCCN1CCN(c2ccccc2/C2=C/CCCCCC2)CC1 [Example 47, 1-Butyl-4-(2-cyclooct-1-enylphenyl)piperazine hydrochloride]",,,,11.8 µM,5 µM
"CCC(=O)CN1CCN(c2ccccc2C2CCC(C)(C)CC2)CC1.Cl [Example 17, 1-{4-[2-(4,4-Dimethylcyclohexyl)phenyl]piperazin-1-yl}butan-2-one hydrochloride]",17.9 µM,6.1 µM,particularly good improvement,,
"CC(C)CN1CCN(c2ccccc2C2=CCC3(CC2)CC3)CC1.Cl [Example 34, 1-Isobutyl-4-(2-spiro[2.5]oct-5-en-6-ylphenyl)piperazine hydrochloride]",,,particularly good improvement,,
"CCCCN1CCC(c2ccccc2C2CC(C)(C)CC(C)(C)C2)CC1 [Example 103, 1-Butyl-4-[2-(3,3,5,5-tetramethylcyclohexyl)phenyl]piperidine hydrochloride]",19.3 µM,4.5 µM,,,

# Now from value to molecule, other results behind:
IC50 [1],IC50 (Jurkat cells),SMILES,"improvement in comparison with the DSS control group (DAI, number of neutrophils infiltrating the colon, length of the colon) (Balb/c mice)",IC50 ([1]; HUVEC),"IC50 (Jurkat cells; Homo sapiens, Jurkat)"
4.9 µM,7.9 µM,"COCCN1CCN(c2ccc(N3CCC(OC)CC3)cc2C2=CCC3(CCCCC3)CC2)CC1 [Example 48, 1-(2-Methoxyethyl)-4-[4-(4-methoxypiperidin-1-yl)-2-spiro[5.5]undec-2-en-3-ylphenyl]piperazine hydrochloride]",,,
9.4 µM,3.6 µM,"CC1(C)CCC(c2ccccc2N2CCN(Cc3ccoc3)CC2)CC1 [Example 69, 1-[2-(4,4-Dimethylcyclohexyl)phenyl]-4-furan-3-ylmethylpiperazine hydrochloride]",,,
6.1 µM,7.7 µM,"COC1CCN(c2ccc(N3CCN(CC4CC4)CC3)c(C3=CCC(C(C)(C)C)CC3)c2)CC1.Cl (racemic) [Example 20, 1-[2-(4-t-Butylcyclohex-1-enyl)-4-(4-methoxypiperidin-1-yl)phenyl]-4-cyclopropylmethylpiperazine hydrochloride]",particularly good improvement,,
18.1 µM,2.2 µM,"CC1(C)C=C(c2ccccc2N2CCN(CC3CCOCC3)CC2)CC(C)(C)C1.Cl [Example 22, 1-(Tetrahydropyran-4-ylmethyl)-4-[2-(3,3,5,5-tetramethylcyclohex-1-enyl)phenyl]piperazine hydrochloride]",particularly good improvement,,
8.5 µM,3.1 µM,"CCCN1CCN(c2ccc(N3CCOCC3)cc2C2=CC(C)(C)CC(C)(C)C2)CC1.Cl [Example 28, 4-[4-(4-Propylpiperazin-1-yl)-3-(3,3,5,5-tetramethylcyclohex-1-enyl)phenyl]morpholine hydrochloride]",particularly good improvement,,
9.1 µM,4.5 µM,"CCCCCN1CCN(c2cc(OC)ccc2C2CCC(C)(C)CC2)CC1.Cl [Example 1, 1-[2-(4,4-Dimethylcyclohexyl)-5-methoxyphenyl]-4-pentylpiperazine hydrochloride]",particularly good improvement,,
16.9 µM,5.5 µM,"CCC(=O)CN1CCN(c2ccc(N3CCOCC3)cc2C2=CCC(CC)(CC)CC2)CC1.Cl [Example 30, 1-{4-[2-(4,4-Diethylcyclohex-1-enyl)-4-morpholin-4-ylphenyl]piperazin-1-yl}butan-2-one hydrochloride]",particularly good improvement,,
7 µM,3.6 µM,"CCCCN1CCN(c2ccc(N3CCC(OC)CC3)cc2C2CC(C)(C)CC(C)(C)C2)CC1.Cl [Example 32, 1-Butyl-4-[4-(4-methoxypiperidin-1-yl)-2-(3,3,5,5-tetramethylcyclohexyl)phenyl]piperazine hydrochloride]",particularly good improvement,,
16.4 µM,6.4 µM,"COc1ccc(N2CCN(CC3CCOCC3)CC2)c(C2CC(C)(C)CC(C)(C)C2)c1 [Example 85, 1-[4-Methoxy-2-(3,3,5,5-tetramethylcyclohexyl)phenyl]-4-(tetrahydropyran-4-ylmethyl)piperazine hydrochloride]",,,
